Measured values reported in paper PMC11844454 (bioRxiv, 2025).

Tests used:
PP4 holoenzyme = PP4 holoenzyme (Homo sapiens, UniProt P60510); details: 100 uM DiFMUP; pH 7.4, 30 C; Mg2+ from enzyme buffer
PP6 holoenzyme = PP6 holoenzyme (Homo sapiens, UniProt O00743); details: 100 uM DiFMUP; pH 7.4, 30 C; Mg2+ from enzyme buffer
PP6 holoenzyme, sequence (O00743 whole entry): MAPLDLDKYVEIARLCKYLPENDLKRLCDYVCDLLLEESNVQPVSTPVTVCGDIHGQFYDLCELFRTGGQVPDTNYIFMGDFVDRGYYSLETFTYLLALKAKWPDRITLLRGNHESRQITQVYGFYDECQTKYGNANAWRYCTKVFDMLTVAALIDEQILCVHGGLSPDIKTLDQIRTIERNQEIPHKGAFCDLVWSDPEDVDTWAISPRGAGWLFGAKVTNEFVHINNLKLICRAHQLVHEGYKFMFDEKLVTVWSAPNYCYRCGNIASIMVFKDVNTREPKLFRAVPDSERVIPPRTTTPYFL
PP6 holoenzyme, sequence (Q9UPN7 whole entry partner): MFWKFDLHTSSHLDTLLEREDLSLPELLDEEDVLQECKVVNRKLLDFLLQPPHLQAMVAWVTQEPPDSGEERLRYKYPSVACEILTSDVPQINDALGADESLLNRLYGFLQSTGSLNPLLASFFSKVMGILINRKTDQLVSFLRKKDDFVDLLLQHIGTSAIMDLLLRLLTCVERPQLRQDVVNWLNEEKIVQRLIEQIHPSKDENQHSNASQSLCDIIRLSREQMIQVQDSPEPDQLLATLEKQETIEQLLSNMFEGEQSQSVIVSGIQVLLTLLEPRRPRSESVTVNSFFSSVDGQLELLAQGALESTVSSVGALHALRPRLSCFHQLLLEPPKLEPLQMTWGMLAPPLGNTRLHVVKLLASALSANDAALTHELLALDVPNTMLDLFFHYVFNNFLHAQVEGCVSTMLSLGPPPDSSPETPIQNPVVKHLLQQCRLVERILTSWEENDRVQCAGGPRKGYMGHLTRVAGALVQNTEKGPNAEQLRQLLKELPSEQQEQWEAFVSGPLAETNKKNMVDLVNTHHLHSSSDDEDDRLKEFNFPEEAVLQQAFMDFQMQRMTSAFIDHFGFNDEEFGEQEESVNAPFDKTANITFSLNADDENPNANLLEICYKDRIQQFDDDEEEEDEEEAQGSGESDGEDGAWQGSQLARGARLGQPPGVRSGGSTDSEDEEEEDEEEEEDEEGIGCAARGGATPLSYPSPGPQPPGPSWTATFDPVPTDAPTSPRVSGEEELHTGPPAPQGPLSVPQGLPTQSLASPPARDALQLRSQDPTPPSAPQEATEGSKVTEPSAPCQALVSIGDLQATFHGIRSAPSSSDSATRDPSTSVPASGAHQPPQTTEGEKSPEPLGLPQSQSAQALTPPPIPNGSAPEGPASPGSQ
PP6 holoenzyme, sequence (O15084 whole entry partner): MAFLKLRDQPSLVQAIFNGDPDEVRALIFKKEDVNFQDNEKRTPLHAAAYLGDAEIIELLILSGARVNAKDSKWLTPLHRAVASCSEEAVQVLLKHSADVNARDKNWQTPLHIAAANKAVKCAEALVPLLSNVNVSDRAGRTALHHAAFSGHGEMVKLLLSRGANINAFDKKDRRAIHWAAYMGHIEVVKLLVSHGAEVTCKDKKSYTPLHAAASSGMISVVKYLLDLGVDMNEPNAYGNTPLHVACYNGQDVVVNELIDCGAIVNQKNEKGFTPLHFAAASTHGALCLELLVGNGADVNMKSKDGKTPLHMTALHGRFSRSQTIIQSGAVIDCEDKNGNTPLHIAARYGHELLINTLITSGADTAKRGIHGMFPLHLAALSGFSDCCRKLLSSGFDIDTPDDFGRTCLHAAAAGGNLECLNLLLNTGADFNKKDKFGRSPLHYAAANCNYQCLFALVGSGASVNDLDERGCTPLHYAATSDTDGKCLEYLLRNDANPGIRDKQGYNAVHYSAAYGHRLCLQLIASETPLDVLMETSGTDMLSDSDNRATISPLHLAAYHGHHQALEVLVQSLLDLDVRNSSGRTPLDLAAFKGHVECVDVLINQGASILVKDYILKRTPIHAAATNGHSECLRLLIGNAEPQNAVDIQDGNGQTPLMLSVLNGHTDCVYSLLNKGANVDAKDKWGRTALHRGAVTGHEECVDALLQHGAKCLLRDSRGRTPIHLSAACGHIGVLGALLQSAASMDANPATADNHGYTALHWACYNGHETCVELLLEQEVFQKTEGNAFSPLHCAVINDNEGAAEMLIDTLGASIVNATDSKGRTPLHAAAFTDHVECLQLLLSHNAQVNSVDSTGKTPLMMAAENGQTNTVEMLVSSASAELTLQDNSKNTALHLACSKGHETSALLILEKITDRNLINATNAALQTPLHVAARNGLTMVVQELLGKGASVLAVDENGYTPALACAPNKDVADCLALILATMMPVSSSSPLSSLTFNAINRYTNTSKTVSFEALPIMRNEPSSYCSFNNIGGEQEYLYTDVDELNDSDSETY

PP4 holoenzyme, sequence (P60510 2-307): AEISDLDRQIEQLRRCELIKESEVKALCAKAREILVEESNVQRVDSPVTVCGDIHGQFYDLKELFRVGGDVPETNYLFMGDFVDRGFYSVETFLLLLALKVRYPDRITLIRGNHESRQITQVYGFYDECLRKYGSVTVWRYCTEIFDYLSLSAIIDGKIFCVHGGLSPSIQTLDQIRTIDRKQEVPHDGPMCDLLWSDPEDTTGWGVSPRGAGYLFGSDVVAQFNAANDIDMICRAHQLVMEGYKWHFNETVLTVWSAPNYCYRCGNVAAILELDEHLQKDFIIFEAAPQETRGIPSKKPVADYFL
PP4 holoenzyme, sequence (Q9NY27 whole entry partner): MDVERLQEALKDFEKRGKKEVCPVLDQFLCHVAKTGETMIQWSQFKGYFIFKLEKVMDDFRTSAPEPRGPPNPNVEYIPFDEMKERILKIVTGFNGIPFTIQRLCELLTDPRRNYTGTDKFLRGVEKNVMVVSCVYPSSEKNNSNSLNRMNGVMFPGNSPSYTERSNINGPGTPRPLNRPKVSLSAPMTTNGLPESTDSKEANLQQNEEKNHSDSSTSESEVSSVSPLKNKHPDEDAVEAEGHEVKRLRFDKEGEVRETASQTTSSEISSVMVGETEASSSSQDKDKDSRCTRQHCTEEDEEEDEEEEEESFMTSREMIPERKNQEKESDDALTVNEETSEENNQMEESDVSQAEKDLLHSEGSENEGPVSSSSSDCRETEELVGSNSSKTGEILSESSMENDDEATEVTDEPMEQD
PP4 holoenzyme, sequence (Q6IN85 whole entry partner): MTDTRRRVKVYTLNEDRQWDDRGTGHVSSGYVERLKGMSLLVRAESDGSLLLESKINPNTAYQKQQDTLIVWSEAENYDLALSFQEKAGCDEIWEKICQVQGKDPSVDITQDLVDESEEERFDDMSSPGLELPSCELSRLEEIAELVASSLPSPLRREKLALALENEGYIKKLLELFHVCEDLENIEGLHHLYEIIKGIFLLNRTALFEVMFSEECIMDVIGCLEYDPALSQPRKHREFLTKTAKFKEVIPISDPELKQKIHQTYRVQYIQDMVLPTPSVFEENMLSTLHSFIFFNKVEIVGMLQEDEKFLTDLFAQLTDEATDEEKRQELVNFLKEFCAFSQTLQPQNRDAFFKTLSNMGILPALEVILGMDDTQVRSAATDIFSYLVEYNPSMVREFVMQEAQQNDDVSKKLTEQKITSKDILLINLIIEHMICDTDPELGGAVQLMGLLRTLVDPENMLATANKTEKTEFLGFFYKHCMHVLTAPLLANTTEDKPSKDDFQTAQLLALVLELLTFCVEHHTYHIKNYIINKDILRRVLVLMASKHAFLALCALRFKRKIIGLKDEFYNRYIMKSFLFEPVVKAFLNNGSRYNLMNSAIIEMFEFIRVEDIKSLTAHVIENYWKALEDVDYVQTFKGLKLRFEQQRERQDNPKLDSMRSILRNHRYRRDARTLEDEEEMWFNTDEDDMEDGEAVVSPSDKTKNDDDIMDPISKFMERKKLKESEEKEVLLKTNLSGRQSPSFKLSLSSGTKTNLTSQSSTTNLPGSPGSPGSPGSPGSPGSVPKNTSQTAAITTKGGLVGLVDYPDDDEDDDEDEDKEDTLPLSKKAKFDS

fluorescence dephosphorylation assay (PP4 holoenzyme): mixing purified PP4 and PP6 holoenzymes
Structure (SMILES): Cc1cc(=O)oc2c(F)c(OP(=O)(O)O)c(F)cc12 [DiFMUP]
fluorescence dephosphorylation assay (PP6 holoenzyme): DiFMUP dephosphorylation assay measuring the activity of purified PP6 holoenzyme
